In brackets after ≈: the same amount, converted by molar mass. Activity calls are given as the source filed them. The calls are words filed in the database; no cut-off is given here.
Experiments:
[1] = molecular target: Cyclin-dependent kinase 4/cyclin D1 (Homo sapiens) (UniProt P11802+P24385); experiment: Inhibition of wild type full length human CDK4 (1 to 303 residues)/CyclinD1 expressed in mammalian expression system at 1 uM by KINOMEscan analysis
MV4-11 [2] = experiment: Induction of cell cycle arrest in human MV4-11 cells assessed as accumulation of cells at G2/M phase at 0.1 uM incubated fo 36 hrs by propidium iodide staining based flow cytometry (reference value: 9.5%); assay type: functional
HCT-116 = experiment: Antiproliferative activity against human HCT-116 cells assessed as reduction in cell viability measured after 72 hrs; assay type: functional, cell-based; conditions: HCT-116, 72 h
MV4-11 [3] = experiment: Induction of cell cycle arrest in human MV4-11 cells assessed as accumulation of cells at G0/G1 phase at 0.1 uM incubated fo 36 hrs by propidium iodide staining based flow cytometry (reference value: 64%); assay type: functional
MV4-11 [4] = experiment: Induction of cell cycle arrest in human MV4-11 cells assessed as accumulation of cells at S phase at 0.4 uM incubated fo 36 hrs by propidium iodide staining based flow cytometry (reference value: 26.5%); assay type: functional
[5] = molecular target: Mitogen-activated protein kinase kinase kinase 7 (Homo sapiens) (UniProt O43318); experiment: Inhibition of wild type partial length human TAK1 (1 to 303 residues) expressed in mammalian expression system at 1 uM by KINOMEscan analysis
MV4-11 [6] = experiment: Induction of cell cycle arrest in human MV4-11 cells assessed as accumulation of cells at G0/G1 phase at 0.8 uM incubated fo 36 hrs by propidium iodide staining based flow cytometry (reference value: 64%); assay type: functional
SW480 = experiment: Antiproliferative activity against human SW480 cells assessed as reduction in cell viability measured after 72 hrs; assay type: functional, cell-based; conditions: SW480, 72 h
MV4-11 [7] = experiment: Induction of apoptosis in human MV4-11 cells assessed as viable cells at 0.1 uM incubated for 24 hrs by AnnexinV-FITC/PI staining based flow cytometry (reference value: 93.4%); assay type: functional; conditions: read-out: Activity
HL-60 = experiment: Antiproliferative activity against human HL-60 cells assessed as reduction in cell viability measured after 72 hrs; assay type: functional, cell-based; conditions: HL-60, 72 h
[8] = molecular target: CDK2/Cyclin A2 (Homo sapiens) (UniProt P24941+P20248); experiment: Inhibition of CDK2/CyclinA2 (unknown origin) at 100 nM by ADP-Glo assay relative to control; assay type: protein-complex assay
A549 = experiment: Antiproliferative activity against human A549 cells assessed as reduction in cell viability measured after 72 hrs; assay type: functional, cell-based; conditions: A549, 72 h
[9] = Toxicity in BALB/c mouse xenografted with human MV4-11 cells assessed as effect on body weight at 7.5 to 15 mg/kg, iv qd; assay type: organism-based; conditions: in vivo, dose 7.5-15 mg/kg
CDK7/Cyclin H/MNAT1 = CDK7/Cyclin H/MNAT1 (Homo sapiens, UniProt P50613); experiment: Inhibition of CDK7/Cyclin H/MAT1 (unknown origin) by ADP-Glo assay; assay type: protein-complex assay
MV4-11 [10] = experiment: Induction of apoptosis in human MV4-11 cells assessed as necrotic cells at 0.5 uM incubated for 24 hrs by AnnexinV-FITC/PI staining based flow cytometry (reference value: 0%); assay type: functional
MV4-11 [11] = experiment: Induction of apoptosis in human MV4-11 cells assessed as viable cells at 0.5 uM incubated for 24 hrs by AnnexinV-FITC/PI staining based flow cytometry (reference value: 93.4%); assay type: functional; conditions: read-out: Activity
MV4-11 [12] = experiment: Induction of apoptosis in human MV4-11 cells assessed as increase in cleaved PARP-1 protein expression incubated for 24 hrs by western blot analysis; assay type: functional, cell-based; conditions: dose 0.1-4 µM
[13] = molecular target: Mitogen-activated protein kinase kinase kinase kinase 2 (Homo sapiens) (UniProt Q12851); experiment: Inhibition of wild type partial length human MAP4K2 (1 to 318 residues) expressed in mammalian expression system at 1 uM by KINOMEscan analysis
[14] = Cytotoxicity against human HEK293 cells assessed as reduction in cell viability measured after 72 hrs; assay type: toxicity, cell-based
MV4-11 [15] = experiment: Induction of cell cycle arrest in human MV4-11 cells assessed as accumulation of cells at G0/G1 phase at 0.2 uM incubated fo 36 hrs by propidium iodide staining based flow cytometry (reference value: 64%); assay type: functional
[16] = molecular target: Calcium-dependent protein kinase 1 (Plasmodium falciparum) (UniProt P62344); experiment: Inhibition of wild type full length Plasmodium falciparum PFCDPK1 (1 to 524 residues) expressed in mammalian expression system at 1 uM by KINOMEscan analysis
MOLM-13 = experiment: Antiproliferative activity against human MOLM-13 cells assessed as reduction in cell viability measured after 72 hrs; assay type: functional, cell-based; conditions: MOLM-13, 72 h
MV4-11 [17] = experiment: Induction of cell cycle arrest in human MV4-11 cells assessed as accumulation of cells at G0/G1 phase at 0.4 uM incubated fo 36 hrs by propidium iodide staining based flow cytometry (reference value: 64%); assay type: functional
MV4-11 [18] = experiment: Induction of apoptosis in human MV4-11 cells assessed as necrotic cells at 2 uM incubated for 24 hrs by AnnexinV-FITC/PI staining based flow cytometry (reference value: 0%); assay type: functional
[19] = molecular target: Cyclin-dependent kinase 9 (Homo sapiens) (UniProt P50750); experiment: Inhibition of CDK9 in human MV4-11 cells assessed as reduction in c-Myc mRNA expression at 0.1 to 2 uM incubated for 12 hrs by qPCR analysis; assay type: cell-based; conditions: dose 0.1-2 µM
[20] = molecular target: Rho-associated protein kinase 2 (Homo sapiens) (UniProt O75116); experiment: Inhibition of wild type partial length human ROCK2 (1 to 431 residues) expressed in mammalian expression system at 1 uM by KINOMEscan analysis
MV4-11 [21] = experiment: Antitumor activity against human MV4-11 cells xenografted in BALB/c mouse assessed as inhibition of tumor growth at 15 mg/kg, iv qd and measured every 2 days; assay type: functional; conditions: MV4-11, 48 h, read-out: TGI
[22] = molecular target: CDK9/cyclin T1 (Homo sapiens) (UniProt O60563+P50750); experiment: Inhibition of CDK9/CyclinT1 (unknown origin) at 100 nM by ADP-Glo assay relative to control; assay type: protein-complex assay
[23] = molecular target: MAP kinase-interacting serine/threonine-protein kinase 2 (Homo sapiens) (UniProt Q9HBH9); experiment: Inhibition of wild type partial length human MKNK2 (63 to 388 residues) expressed in mammalian expression system at 1 uM by KINOMEscan analysis
[24] = molecular target: Myosin-IIIb (Homo sapiens) (UniProt Q8WXR4); experiment: Inhibition of wild type partial length human MYO3B (1 to 357 residues) expressed in bacterial expression system at 1 uM by KINOMEscan analysis
[25] = Solubility of the compound in water at pH 7.4; assay type: physicochemical
[26] = Cytotoxicity against human L02 cells assessed as reduction in cell viability measured after 72 hrs; assay type: toxicity, cell-based
HepG2 = experiment: Antiproliferative activity against human HepG2 cells assessed as reduction in cell viability measured after 72 hrs; assay type: functional, cell-based; conditions: HepG2, 72 h
[27] = Inhibition of CDK1/CyclinA2 (unknown origin) by ADP-Glo assay; parameters: species or system Homo sapiens
MCF7 = experiment: Antiproliferative activity against human MCF7 cells assessed as reduction in cell viability measured after 72 hrs; assay type: functional, cell-based; conditions: MCF7, 72 h

CDK7/Cyclin H/MNAT1, sequence (P51946 whole entry): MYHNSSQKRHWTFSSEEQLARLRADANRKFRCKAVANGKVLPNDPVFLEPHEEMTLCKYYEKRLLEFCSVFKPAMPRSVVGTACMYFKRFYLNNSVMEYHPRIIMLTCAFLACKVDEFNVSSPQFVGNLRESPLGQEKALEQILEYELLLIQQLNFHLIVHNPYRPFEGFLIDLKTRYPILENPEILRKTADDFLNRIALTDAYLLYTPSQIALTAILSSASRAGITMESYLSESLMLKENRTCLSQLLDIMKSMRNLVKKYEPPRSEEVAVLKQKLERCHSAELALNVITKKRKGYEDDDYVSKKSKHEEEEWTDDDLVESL
CDK7/Cyclin H/MNAT1, sequence (P50613 whole entry): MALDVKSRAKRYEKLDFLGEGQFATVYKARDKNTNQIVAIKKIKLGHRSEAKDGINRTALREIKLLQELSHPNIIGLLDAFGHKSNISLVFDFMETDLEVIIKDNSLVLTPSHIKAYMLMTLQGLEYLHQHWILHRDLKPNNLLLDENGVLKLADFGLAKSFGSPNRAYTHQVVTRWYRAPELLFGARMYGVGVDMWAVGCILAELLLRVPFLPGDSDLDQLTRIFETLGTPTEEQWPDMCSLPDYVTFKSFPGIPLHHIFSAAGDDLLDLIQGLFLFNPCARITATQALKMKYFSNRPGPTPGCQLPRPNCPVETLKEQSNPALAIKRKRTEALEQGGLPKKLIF
CDK7/Cyclin H/MNAT1, sequence (P51948 whole entry, further chain): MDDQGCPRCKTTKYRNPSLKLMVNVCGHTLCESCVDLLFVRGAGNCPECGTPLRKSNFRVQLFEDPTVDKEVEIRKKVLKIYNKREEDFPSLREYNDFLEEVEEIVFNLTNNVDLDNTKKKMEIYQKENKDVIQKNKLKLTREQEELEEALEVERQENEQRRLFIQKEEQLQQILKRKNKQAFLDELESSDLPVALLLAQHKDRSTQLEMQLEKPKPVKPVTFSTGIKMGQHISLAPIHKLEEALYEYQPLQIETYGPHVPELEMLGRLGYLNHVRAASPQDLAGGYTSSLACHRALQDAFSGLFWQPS
Mitogen-activated protein kinase kinase kinase kinase 2 (Homo sapiens), sequence (Q12851 whole entry, the tested form may be a part): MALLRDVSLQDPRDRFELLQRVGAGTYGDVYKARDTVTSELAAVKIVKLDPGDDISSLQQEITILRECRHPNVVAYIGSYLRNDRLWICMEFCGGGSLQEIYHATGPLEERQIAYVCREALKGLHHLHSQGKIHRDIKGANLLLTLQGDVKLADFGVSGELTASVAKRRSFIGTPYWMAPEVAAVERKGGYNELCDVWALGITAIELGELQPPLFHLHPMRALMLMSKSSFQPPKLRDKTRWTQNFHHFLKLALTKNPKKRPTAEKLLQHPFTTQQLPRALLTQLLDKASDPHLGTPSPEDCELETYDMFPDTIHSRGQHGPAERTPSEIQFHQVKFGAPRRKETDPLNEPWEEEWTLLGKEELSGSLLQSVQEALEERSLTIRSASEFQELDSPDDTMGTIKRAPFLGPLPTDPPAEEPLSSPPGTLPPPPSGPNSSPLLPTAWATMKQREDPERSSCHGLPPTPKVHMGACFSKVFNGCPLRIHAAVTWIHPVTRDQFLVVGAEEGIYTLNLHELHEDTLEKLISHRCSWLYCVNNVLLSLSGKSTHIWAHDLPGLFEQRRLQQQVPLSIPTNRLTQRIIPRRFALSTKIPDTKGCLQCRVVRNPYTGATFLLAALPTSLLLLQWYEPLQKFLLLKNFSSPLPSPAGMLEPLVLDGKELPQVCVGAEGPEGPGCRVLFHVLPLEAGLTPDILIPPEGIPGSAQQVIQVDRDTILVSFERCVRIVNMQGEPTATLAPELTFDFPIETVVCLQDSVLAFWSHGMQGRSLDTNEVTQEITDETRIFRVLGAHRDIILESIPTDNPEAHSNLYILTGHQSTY
Cyclin-dependent kinase 9 (Homo sapiens), sequence (P50750 whole entry, the tested form may be a part): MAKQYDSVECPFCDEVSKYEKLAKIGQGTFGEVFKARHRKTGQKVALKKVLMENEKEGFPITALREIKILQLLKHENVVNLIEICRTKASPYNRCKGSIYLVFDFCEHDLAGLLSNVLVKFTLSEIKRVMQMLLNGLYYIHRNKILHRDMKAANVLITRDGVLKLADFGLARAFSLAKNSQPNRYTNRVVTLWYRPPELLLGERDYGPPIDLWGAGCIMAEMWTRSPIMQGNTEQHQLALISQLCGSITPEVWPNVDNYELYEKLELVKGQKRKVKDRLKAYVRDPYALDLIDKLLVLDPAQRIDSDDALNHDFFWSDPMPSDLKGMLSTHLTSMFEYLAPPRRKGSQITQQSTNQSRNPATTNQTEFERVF
Calcium-dependent protein kinase 1 (Plasmodium falciparum), sequence (P62344 2-524 limits assumed): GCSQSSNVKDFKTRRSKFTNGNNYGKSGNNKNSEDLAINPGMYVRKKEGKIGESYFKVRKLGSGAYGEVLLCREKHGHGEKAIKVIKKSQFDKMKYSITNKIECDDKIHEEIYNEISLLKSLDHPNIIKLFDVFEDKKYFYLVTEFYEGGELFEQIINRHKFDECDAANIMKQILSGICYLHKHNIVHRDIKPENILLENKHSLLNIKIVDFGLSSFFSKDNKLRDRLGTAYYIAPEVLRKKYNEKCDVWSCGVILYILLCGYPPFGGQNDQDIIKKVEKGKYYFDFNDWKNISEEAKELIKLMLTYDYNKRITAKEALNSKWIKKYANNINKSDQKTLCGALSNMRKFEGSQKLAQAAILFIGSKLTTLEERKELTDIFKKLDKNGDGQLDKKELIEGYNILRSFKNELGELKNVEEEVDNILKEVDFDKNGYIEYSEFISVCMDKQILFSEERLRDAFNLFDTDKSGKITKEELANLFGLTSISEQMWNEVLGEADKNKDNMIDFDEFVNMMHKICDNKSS
Rho-associated protein kinase 2 (Homo sapiens), sequence (O75116 whole entry, looked up, the tested form may be a part): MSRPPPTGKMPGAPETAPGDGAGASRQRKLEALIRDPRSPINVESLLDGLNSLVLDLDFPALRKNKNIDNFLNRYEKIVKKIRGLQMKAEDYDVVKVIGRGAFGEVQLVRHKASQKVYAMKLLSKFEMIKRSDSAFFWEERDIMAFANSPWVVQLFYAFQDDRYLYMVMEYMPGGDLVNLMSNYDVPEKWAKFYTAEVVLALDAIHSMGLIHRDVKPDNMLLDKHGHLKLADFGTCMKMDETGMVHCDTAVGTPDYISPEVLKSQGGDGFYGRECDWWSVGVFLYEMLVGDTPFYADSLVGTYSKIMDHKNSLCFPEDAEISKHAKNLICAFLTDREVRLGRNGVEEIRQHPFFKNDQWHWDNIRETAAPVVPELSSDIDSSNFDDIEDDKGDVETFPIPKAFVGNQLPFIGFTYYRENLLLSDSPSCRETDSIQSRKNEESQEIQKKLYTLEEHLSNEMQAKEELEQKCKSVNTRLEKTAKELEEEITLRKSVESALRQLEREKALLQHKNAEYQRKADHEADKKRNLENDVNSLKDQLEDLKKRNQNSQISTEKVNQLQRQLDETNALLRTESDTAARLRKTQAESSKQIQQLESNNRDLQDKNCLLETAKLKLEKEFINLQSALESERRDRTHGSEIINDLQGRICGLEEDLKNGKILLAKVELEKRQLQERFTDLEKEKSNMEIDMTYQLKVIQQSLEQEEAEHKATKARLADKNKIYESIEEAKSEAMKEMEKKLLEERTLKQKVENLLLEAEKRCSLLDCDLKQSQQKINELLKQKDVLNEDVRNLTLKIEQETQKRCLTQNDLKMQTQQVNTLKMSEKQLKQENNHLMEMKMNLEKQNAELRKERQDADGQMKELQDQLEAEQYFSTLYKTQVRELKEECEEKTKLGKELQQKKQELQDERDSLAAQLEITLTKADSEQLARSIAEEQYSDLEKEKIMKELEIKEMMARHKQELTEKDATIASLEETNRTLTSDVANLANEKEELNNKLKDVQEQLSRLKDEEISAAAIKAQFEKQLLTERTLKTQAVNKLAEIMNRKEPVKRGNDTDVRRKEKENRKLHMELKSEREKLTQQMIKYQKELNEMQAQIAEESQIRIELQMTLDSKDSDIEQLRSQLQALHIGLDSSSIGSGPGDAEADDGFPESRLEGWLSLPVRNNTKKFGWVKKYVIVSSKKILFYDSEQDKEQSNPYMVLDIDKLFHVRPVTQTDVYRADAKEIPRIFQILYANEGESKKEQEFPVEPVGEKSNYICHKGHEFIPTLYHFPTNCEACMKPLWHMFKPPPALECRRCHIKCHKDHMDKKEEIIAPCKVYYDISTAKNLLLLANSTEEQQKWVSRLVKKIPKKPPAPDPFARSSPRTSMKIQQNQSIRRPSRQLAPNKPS
MAP kinase-interacting serine/threonine-protein kinase 2 (Homo sapiens), sequence (Q9HBH9 whole entry, looked up, the tested form may be a part): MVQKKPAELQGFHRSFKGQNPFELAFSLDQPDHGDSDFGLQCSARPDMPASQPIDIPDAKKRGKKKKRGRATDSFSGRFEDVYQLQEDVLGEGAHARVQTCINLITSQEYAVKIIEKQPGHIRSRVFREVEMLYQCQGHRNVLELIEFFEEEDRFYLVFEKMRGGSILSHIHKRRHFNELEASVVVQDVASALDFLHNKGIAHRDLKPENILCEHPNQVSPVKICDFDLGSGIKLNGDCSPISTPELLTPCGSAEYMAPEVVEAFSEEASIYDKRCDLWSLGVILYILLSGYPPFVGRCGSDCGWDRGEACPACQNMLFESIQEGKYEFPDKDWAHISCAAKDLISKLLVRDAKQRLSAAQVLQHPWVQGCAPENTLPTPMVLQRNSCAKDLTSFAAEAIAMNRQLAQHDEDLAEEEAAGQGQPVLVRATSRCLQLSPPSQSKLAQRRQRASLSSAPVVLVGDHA

Compound: COc1cc(O)c2c(=O)cc(-c3ccc(N4CCN(C)CC4)cc3)oc2c1C1=CCN(C)CC1
- inhibition [1]: 5.3%
- Activity (MV4-11 [2]): 8.5%
- IC50 (HCT-116): 20 nM
- Activity (MV4-11 [3]): 70.5%
- Activity (MV4-11 [4]): 12.8%
- inhibition [5]: 9.5%
- Activity (MV4-11 [6]): 84.2%
- IC50 (SW480): 3450 nM
- viability at 0.1 µM (MV4-11 [7]): 91.5%
- IC50 (HL-60): 180 nM
- inhibition [8]: 16.7%
- IC50 (A549): 700 nM
- Activity [9]: Non-Toxic
- IC50 (CDK7/Cyclin H/MNAT1): 536 nM
- Activity (MV4-11 [10]): 0%
- viability at 0.5 µM (MV4-11 [11]): 87.8%
- Activity (MV4-11 [12]): Dose-Dependent Effect
- inhibition [13]: 9.9%
- IC50 at 72 h [14]: 10700 nM
- Activity (MV4-11 [15]): 73.9%
- inhibition [16]: 2.2%
- IC50 (MOLM-13): 160 nM
- Activity (MV4-11 [17]): 81.2%
- Activity (MV4-11 [18]): 0.11%
- inhibition [19]: Active
- inhibition [20]: 6%
- inhibition in vivo at 15 mg/kg (MV4-11 [21]): 65%
- inhibition [22]: 98.9%
- inhibition [23]: 1.6%
- inhibition [24]: 0%
- solubility [25]: 120 µg/mL (≈ 260 µM)
- IC50 at 72 h [26]: 10600 nM
- IC50 (HepG2): 410 nM
- IC50 [27]: 4180 nM
- IC50 (MCF7): 140 nM
